# US5750516A, “Phosphoric diester” (Senju Pharmaceutical Co., Ltd., priority 1995, dated 1998)
# What was measured:
# [1] = tested on: lipid peroxidation in rat brain homogenate; experiment: Autooxidation (lipid peroxidation) of the rat brain homogenate, MDA by TBA method; format: biochemical, Rats of Wistar strain; details: for Inhibition (%) of lipid peroxidation in rat brain homogenate: 37° C., 30 minutes, pH 7.4
# Experimental: Rats of Wistar strain (male, 11 weeks old) were used. The animal was decapitated and the brain was enucleated and homogenized in 4 ml/gram of 50 mM phosphate-buffered saline (pH 7.4). The homogenate was centrifuged (1000 g, 10 min.) and the supernatant was harvested. The test solution was set to 10^-7 -10^-4 M (dissolved at a final ethanol concentration of 1%). To 100 μl of the test solution was added 200 μl of the brain homogenate as well as 700 μl of phosphate-buffered saline and the mixture was incubated at 37° C. for 30 minutes for lipid peroxidation. The reaction was stopped with 200 μl of 35% perchloric acid and centrifuged (1300 g, 10 min.) and the MDA (malondialdehyde) value of the supernatant was determined by the TBA (thiobarbituric acid) method.
# [2] = DPPH (1,1-Diphenyl-2-picrylhydrazyl) radical scavenging action; format: biochemical; details: for Inhibition (%) (scavenging effect on DPPH radical): 20 minutes, 517 nm
# Experimental: To 2.7 ml of 0.11 mM-DPPH/ethanol was added 300 μl of the test solution and the mixture was stirred and allowed to stand for 20 minutes. Then, the absorbance was measured at 517 nm. The radical scavenging effect (%) of each test solution was calculated by means of the following equation. [formula]
compound,measurement,setting,value
"Cc1c(C)c2c(c(C)c1OP(=O)([O-])O[C@@H](CO)[C@H]1OC(=O)C(O)=C1O)CCC(C)(CCCC(C)CCCC(C)CCCC(C)C)O2.[K+] (stereo partly drawn) [the present compound, L-ascorbic acid 5-[3,4-dihydro-2,5,7,8-tetramethyl-2-(4,8,12-trimethyltridecyl)-2H-1-benzopyran-6-yl hydrogen phosphate] potassium]",Inhibition (%) of lipid peroxidation in rat brain homogenate,[1]; 10^-4 M,98.5%
same,Inhibition (%) of lipid peroxidation in rat brain homogenate,[1]; 10^-5 M,98.7%
same,Inhibition (%) of lipid peroxidation in rat brain homogenate,[1]; 10^-6 M,93.3%
same,inhibition of autooxidation of the rat brain homogenate (in words),[1]; 10^-7 -10^-4 M,inhibits autooxidation of the rat brain homogenate to a remarkable extent
same,Inhibition (%) of lipid peroxidation in rat brain homogenate,[1]; 10^-7 M,24.7%
same,Inhibition (%) (scavenging effect on DPPH radical),[2]; 5 × 10^-5 M,71.7%
same,Inhibition (%) (scavenging effect on DPPH radical),[2]; 10^-3 M,96.7%
same,Inhibition (%) (scavenging effect on DPPH radical),[2]; 10^-4 M,97.3%
same,Inhibition (%) (scavenging effect on DPPH radical),[2]; 10^-5 M,13.1%
same,scavenging of DPPH radicals (in words),[2]; 10^-5 to 10^-3 M,scavenges DPPH radicals to a remarkable extent
